Source: patent US10125134B2 (Mirati Therapeutics, Inc., priority 2016, dated 2018)
Read-outs that look alike come from different tables or passages of the source.

Key:
KRas G12C = KRas G12C (Homo sapiens, UniProt P01116, C118S/C51S/C80L/G12C); assay: KRas G12C Modification Assay (LCMS detection of covalent adduct); format: binding; details: normalized percent of control; tested at 5 μM concentration for 3 hours
How it was run: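 Cys-light KRas G12C mutant protein incubated with compound in K-Ras assay buffer, reactions quenched at set time points with 25 mM acetic acid and analysed by intact-protein LC/MS on a C-3 column. Deconvoluted mass heights expressed as percent of control (POC) relative to compound-free protein.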

[1] = tested on: NCI-H358 cells (express KRas G12C), Phospho-ERK; assay: Cellular inhibition of KRas G12C: Phospho-ERK in NCI-H358 cells; format: cell-based; details: Homo sapiens, pERK(Thr202/Tyr204) normalized with GAPDH, NCI-H358 cells, 3 hours, read-out: IC50
How it was run: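 IC50 derived by 4-parameter fit of GAPDH-normalized pERK(Thr202/Tyr204) signal, as percent of DMSO control. Signal came from in-cell immunodetection with infrared secondaries after 3 h compound exposure of KRas G12C NCI-H358 cells at 0.5% DMSO.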

SMILES	POC (KRas G12C)	IC50 ([1]; NCI-H358, 3 h) [µM]	IC50 [1] [µM]
C=CC(=O)N1CCN(c2nc(OC[C@@H]3CCCN3CCOC)nc3c2CCN(c2cc(O)cc4ccccc24)C3)CC1 [Example 144, (5)-1-(4-(7-(3-hydroxynaphthalen-1-yl)-2-((1-(2-methoxyethyl)pyrrolidin-2-yl)methoxy)-5,6,7,8-tetrahydropyrido[3,4-d]pyrimidin-4-yl)piperazin-1-yl)prop-2-en-1-one]	C (“C”>50% POC)	0.0001 to 1	
C=CC(=O)N1CCN(c2nc(OC[C@@H]3CCCN3C(C)C)nc3c2CCN(c2cc(O)cc4ccccc24)C3)CC1 [Example 145, 1-[4-[7-(3-hydroxy-1-naphthyl)-2-[[(2S)-1-isopropylpyrrolidin-2-yl]methoxy]-6,8-dihydro-5H-pyrido[3,4-d]pyrimidin-4-yl]piperazin-1-yl]prop-2-en-1-one]	C (“C”>50% POC)	0.0001 to 1	
C=CC(=O)N1CCN(c2nc(OC[C@@H]3CCNC3)nc3c2CCN(c2cc(O)cc4ccccc24)C3)CC1 [Example 146, 1-[4-[7-(3-hydroxy-1-naphthyl)-2-[[(3R)-pyrrolidin-3-yl]methoxy]-6,8-dihydro-5H-pyrido[3,4-d]pyrimidin-4-yl]piperazin-1-yl]prop-2-en-1-one]	B (“B”>25% POC−≤50% POC)	> 1	
C=CC(=O)N1CCN(c2nc(OC[C@@H]3CCCN3C)nc3c2CCN(c2cccc4ccccc24)C3)CC1CC#N (stereo partly drawn) [Example 147, 2-[4-[2-[[(2S)-1-methylpyrrolidin-2-yl]methoxy]-7-(1-naphthyl)-6,8-dihydro-5H-pyrido[3,4-d]pyrimidin-4-yl]-1-prop-2-enoyl-piperazin-2-yl]acetonitrile]	C (“C”>50% POC)		0.0001 to 1
C=CC(=O)N1CCN(c2nc(OC[C@@H]3CCCN3C)nc3c2CCN(c2c(C)ccc4[nH]ncc24)C3)CC1CC#N (stereo partly drawn) [Example 148, 2-[4-[7-(5-methyl-1H-indazol-4-yl)-2-[[(2S)-1-methylpyrrolidin-2-yl]methoxy]-6,8-dihydro-5H-pyrido[3,4-d]pyrimidin-4-yl]-1-prop-2-enoyl-piperazin-2-yl]acetonitrile]	C (“C”>50% POC)		0.0001 to 1
C=CC(=O)N1CCN(c2nc(OC[C@@H]3CCCN3C)nc3c2CCN(c2c(C(F)(F)F)ccc4[nH]ncc24)C3)CC1CC#N (stereo partly drawn) [Example 149, 2-[4-[2-[[(2S)-1-methylpyrrolidin-2-yl]methoxy]-7-[5-(trifluoromethyl)-1H-indazol-4-yl]-6,8-dihydro-5H-pyrido[3,4-d]pyrimidin-4-yl]-1-prop-2-enoyl-piperazin-2-yl]acetonitrile]	B (“B”>25% POC−≤50% POC)		0.0001 to 1
C=CC(=O)N1CCN(c2nc(O[C@H](C)CN(C)C)nc3c2CCN(c2cc(O)cc4ccccc24)C3)CC1CC#N (stereo partly drawn) [Example 150, 2-(1-acryloyl-4-(2-(((R)-1-(dimethylamino)propan-2-yl)oxy)-7-(3-hydroxynaphthalen-1-yl)-5,6,7,8-tetrahydropyrido[3,4-d]pyrimidin-4-yl)piperazin-2-yl)acetonitrile]	C (“C”>50% POC)	0.0001 to 1	
C=CC(=O)N1CCN(c2nc(O[C@H](C)CN(C)C)nc3c2CCN(c2cccc4ccccc24)C3)CC1CC#N (stereo partly drawn) [Example 151, 2-(1-acryloyl-4-(2-(((R)-1-(dimethylamino)propan-2-yl)oxy)-7-(naphthalen-1-yl)-5,6,7,8-tetrahydropyrido[3,4-d]pyrimidin-4-yl)piperazin-2-yl)acetonitrile]	B (“B”>25% POC−≤50% POC)	> 1	
C=CC(=O)N1CCN(c2nc(O[C@H](C)CN(C)C)nc3c2CCN(c2c(C)ccc4[nH]ncc24)C3)CC1CC#N (stereo partly drawn) [Example 152, 2-[4-[2-[(1R)-2-(dimethylamino)-1-methyl-ethoxy]-7-(5-methyl-1H-indazol-4-yl)-6,8-dihydro-5H-pyrido[3,4-d]pyrimidin-4-yl]-1-prop-2-enoyl-piperazin-2-yl]acetonitrile]	C (“C”>50% POC)		0.0001 to 1
